Data published in patent publication US5459158A, “Pharmaceutical compositions of indazoles and methods of use thereof” (priority 1992, dated 1995).
Read-outs that look alike come from different tables or passages of the source. Values belong to the compound of their own block, whether it stands above or below them.

How the values were obtained:
[1] = biological target: T1, rat cerebellar nitric oxide synthase (NOS) (Rattus norvegicus, UniProt P29476); assay: inhibition of rat cerebellar nitric oxide synthase (NOS); format: biochemical
T1 construct: from tissue
Description: Nitric oxide synthase (NOS) activity was determined in vitro by the method of Dwyer et al., Biochem. Biophys. Res. Commun. 1991, 176, 1136-1141. Mice (male, LACA, 28-32 g) were killed by cervical dislocation. Cerebella were removed, homogenized (1-10 w/v in 20 mM Tris buffer containing 2 mM EDTA, pH. 7.4) and aliquots (25 μl) incubated (37° C.) with L-arginine (120 nM) containing 0.5 μCi [^3 H]-arginine (specific activity 62 Ci mmol^-1), NADPH (0.5 mM) and CaCl2 (0.75 mM). […] Final incubation volume was 105 μl. After 15 minutes the reaction was stopped by addition of 3 ml HEPES buffer (20 mM containing 2 mM EDTA, pH 5.5) and the [^3 H]-citrulline produced was separated by cation exchange chromatography on 0.5 ml columns of Dowex AG50-W8 Na^+ form. [^3 H]-Citrulline was quantitated by liquid scintillation spectroscopy of duplicate 1 ml aliquots of the flow-through.

[2] = biological target: T2, mouse cerebellar NOS (Mus musculus, UniProt Q9Z0J4); assay: inhibition of mouse cerebellar nitric oxide synthase (NOS) activity in vitro; format: biochemical; conditions: for IC50: mouse cerebella homogenate, 15 minutes, 37° C., mean ± s.e. mean, n=6
T2 construct: Cerebella were removed, homogenized; from tissue; host or cells: cerebellum of male LACA mice, crude homogenate
T2 sequence (Q9Z0J4 whole entry): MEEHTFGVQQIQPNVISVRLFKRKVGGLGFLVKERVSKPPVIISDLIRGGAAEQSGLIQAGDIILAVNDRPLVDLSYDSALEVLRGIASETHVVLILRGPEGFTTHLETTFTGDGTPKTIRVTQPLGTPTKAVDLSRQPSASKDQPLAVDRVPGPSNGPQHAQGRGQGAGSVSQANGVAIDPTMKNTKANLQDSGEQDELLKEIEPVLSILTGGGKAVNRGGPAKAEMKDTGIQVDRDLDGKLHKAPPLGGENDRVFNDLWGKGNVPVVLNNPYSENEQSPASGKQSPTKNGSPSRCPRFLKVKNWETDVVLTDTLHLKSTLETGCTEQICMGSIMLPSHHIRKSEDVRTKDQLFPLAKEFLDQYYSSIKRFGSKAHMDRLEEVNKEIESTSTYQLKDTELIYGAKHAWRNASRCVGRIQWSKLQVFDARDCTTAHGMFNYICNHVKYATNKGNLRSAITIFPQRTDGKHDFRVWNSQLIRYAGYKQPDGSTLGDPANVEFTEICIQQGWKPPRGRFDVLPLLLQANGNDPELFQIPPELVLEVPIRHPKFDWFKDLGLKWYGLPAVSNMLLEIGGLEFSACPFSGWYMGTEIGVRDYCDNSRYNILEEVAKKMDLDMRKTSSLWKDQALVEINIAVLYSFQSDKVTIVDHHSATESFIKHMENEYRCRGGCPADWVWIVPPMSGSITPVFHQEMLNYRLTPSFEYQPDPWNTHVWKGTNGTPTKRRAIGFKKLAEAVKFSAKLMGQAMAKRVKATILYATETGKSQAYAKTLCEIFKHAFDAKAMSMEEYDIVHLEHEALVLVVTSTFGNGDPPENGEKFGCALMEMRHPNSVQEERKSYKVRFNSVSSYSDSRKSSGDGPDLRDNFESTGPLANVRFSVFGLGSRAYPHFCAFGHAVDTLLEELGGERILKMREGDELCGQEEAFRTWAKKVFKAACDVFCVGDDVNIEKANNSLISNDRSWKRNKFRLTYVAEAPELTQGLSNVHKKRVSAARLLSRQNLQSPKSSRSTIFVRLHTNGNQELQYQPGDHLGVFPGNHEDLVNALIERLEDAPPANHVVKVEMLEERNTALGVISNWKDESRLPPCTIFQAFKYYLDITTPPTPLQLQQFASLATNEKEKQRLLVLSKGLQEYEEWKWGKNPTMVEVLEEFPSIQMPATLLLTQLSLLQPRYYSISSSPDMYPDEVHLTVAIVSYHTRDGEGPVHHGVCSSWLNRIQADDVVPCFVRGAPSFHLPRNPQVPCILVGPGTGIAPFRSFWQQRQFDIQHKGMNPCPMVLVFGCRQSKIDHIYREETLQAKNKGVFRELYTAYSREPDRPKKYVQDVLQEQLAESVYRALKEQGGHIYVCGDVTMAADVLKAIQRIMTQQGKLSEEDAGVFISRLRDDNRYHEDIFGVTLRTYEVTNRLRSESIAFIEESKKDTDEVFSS

[3] = system: nitric oxide synthase; conditions: Moore et al., British Journal of Pharmacology, 1991, 102, 198-202; cited from earlier work
[4] = biological target: T2, mouse cerebellar NOS; assay: mouse cerebellar NOS activity after i.p. administration (ex vivo); format: in vivo; conditions: n=6, P<0.01
Description: Nitric oxide synthase (NOS) activity was determined in vitro by the method of Dwyer et al., Biochem. Biophys. Res. Commun. […] Mice (male, LACA, 28-32 g) were killed by cervical dislocation. […] Final incubation volume was 105 μl. After 15 minutes the reaction was stopped by addition of 3 ml HEPES buffer (20 mM containing 2 mM EDTA, pH 5.5) and the [^3 H]-citrulline produced was separated by cation exchange chromatography on 0.5 ml columns of Dowex AG50-W8 Na^+ form. [^3 H]-Citrulline was quantitated by liquid scintillation spectroscopy of duplicate 1 ml aliquots of the flow-through.
Cerebella were removed, homogenized and NOS activity determined as described above.

[5] = system: mice; assay: anti-nociceptive activity, formalin-induced hindpaw licking assay; format: in vivo, mouse; conditions: for Inhibition of licking (%): 50 mg kg^-1 i.p., late phase
Description: Control animals received 10 ml kg^-1 of arachis oil or saline (0.9% w/v NaCl).
The percentage inhibition of formalin-induced licking in the late phase following the administration of 50 mg kg^-1 i.p. of the indazoles is shown in the Table below.

[6] = blood pressure (MAP) of urethane-anaesthetized mice; format: in vivo, mouse; conditions: for mean arterial pressure (MAP): n=4
[7] = rat cerebella, read-out: IC50 NOS
[8] = ratio of IC50 on mouse cerebellar NOS in vitro

SMILES: COC(=O)[C@@H](N)CCCNC(=N)N[N+](=O)[O-] [L-NAME, L-N^G -nitroarginine methyl ester, reference compound]
IC50 [2]: 0.87 ± 0.02 µM
block of nitric oxide synthase in brain and peripherally [3]: blocks this enzyme not only in the brain but also peripherally
mouse cerebellar NOS activity ([4]; 50 mg kg^-1, i.p., 15 minutes, cf 8.33±0.15 saline-injected controls): 4.46±0.012 pmol citrulline mg^-1 protein 15 min^-1
inhibition at 50 mg/kg ([4]; mouse, ip, 50 mg kg^-1, i.p., 15 minutes): 46.2 ± 1.6%

SMILES: O=[N+]([O-])c1cccc2cn[nH]c12 [7-nitroindazole]
Inhibition of licking (%) [5]: 100%
early phase response of formalin-induced hindpaw licking (in words) ([5]; 10, 25 and 50 mg kg^-1 i.p., early phase (0-5 minutes)): without influencing the early phase response
inhibition of late phase formalin-induced hindpaw licking (in words) ([5]; 10, 25 and 50 mg kg^-1 i.p., late phase (15-30 minutes)): dose-related inhibition of late phase formalin-induced hindpaw licking
ED50 for the anti-nociceptive effect ([5]; i.p., mice): 26 mg/kg
ED50 for the anti-nociceptive effect (equivalent) ([5]; i.p., mice, converted from 26 mg kg^-1): 159.5 µmol/kg
mean arterial pressure (MAP) ([6]; 25 mg kg^-1 i.p., cf 51.6±4.4 before administration): 47.4±5.1 mmHg
mean arterial pressure (MAP) ([6]; 80 mg kg^-1 i.p., cf 49.5±2.9 before administration): 43.9±5.3 mmHg
mean arterial pressure (MAP), change in words ([6]; 25 and 80 mg kg^-1 i.p., over 45 minutes): did not increase mean arterial pressure
IC50 [2]: 0.47 ± 0.01 µM
times more potent than L-NAME [2, 8]: 1.8 times
times more potent than L-NMMA [2, 8]: 5 times
decrease of mouse cerebellar NOS activity ([4]; 25 mg kg^-1, i.p., 15 minutes thereafter): over 55%
mouse cerebellar NOS activity ([4]; 25 mg kg^-1, i.p., 15 minutes, cf 9.1±0.26 arachis oil-injected controls): 3.9±0.06 nmol citrulline mg^-1 protein 15 min^-1

SMILES: c1ccc2[nH]ncc2c1 [indazole]
Inhibition of licking (%) [5]: 83.2 ± 12.2%
IC50 [1]: 232 µM

SMILES: O=[N+]([O-])c1ccc2[nH]nc(Cl)c2c1 [3-chloro-5-nitroindazole]
IC50 [1, 7]: 177 µM

Now from value to compound, other results behind:

IC50 [1, 7]: 100 µM
SMILES: Clc1n[nH]c2ccccc12 [3-chloroindazole]

IC50 [1, 7]: 56 µM
SMILES: O=[N+]([O-])c1ccc2[nH]ncc2c1 [5-nitroindazole]

IC50 [2]: 2.37 ± 0.03 µM
SMILES: CNC(=N)NCCC[C@H](N)C(=O)O [L-NMMA, L-N^G -monomethyl arginine, reference compound]

IC50 [1, 7]: 32 µM
SMILES: O=[N+]([O-])c1ccc2cn[nH]c2c1 [6-nitroindazole]
Inhibition of licking (%) [5]: 67.0 ± 12.0%
